Key:
Experiment in all cases: relative viability (nuclei count vs DMSO), 5 days (fraction); higher = more cells survive
Ispinesib + Alpelisib = compound: Cc1ccc(C(=O)N(CCCN)[C@@H](c2nc3cc(Cl)ccc3c(=O)n2Cc2ccccc2)C(C)C)cc1 [Ispinesib] + Cc1nc(NC(=O)N2CCC[C@H]2C(N)=O)sc1-c1ccnc(C(C)(C)C(F)(F)F)c1 [Alpelisib] (partner 2 µM)
Outline: (§1)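 One day after seeding in 1536-well plates, lung cancer cell lines were dosed by pin tool. Dosing was either single-drug or a fixed anchor-drug dose plus five library-drug doses (not always all listed) in √10 steps. After 5 days, nuclei were stained in one fix-and-stain step and counted on 4× images, and relative viability is the nuclei count of treated wells over that of vehicle wells, given as the median of duplicate plates.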

Linsitinib + Foretinib = compound: C[C@]1(O)C[C@@H](c2nc(-c3ccc4ccc(-c5ccccc5)nc4c3)c3c(N)nccn32)C1 [Linsitinib] + COc1cc2c(Oc3ccc(NC(=O)C4(C(=O)Nc5ccc(F)cc5)CC4)cc3F)ccnc2cc1OCCCN1CCOCC1 [Foretinib] (partner 0.25 µM)
Outline: as §1

Linsitinib + Crizotinib = compound: C[C@]1(O)C[C@@H](c2nc(-c3ccc4ccc(-c5ccccc5)nc4c3)c3c(N)nccn32)C1 [Linsitinib] + C[C@@H](Oc1cc(-c2cnn(C3CCNCC3)c2)cnc1N)c1c(Cl)ccc(F)c1Cl [Crizotinib] (partner 1 µM)
Outline: as §1

Linsitinib + Olaparib = compound: C[C@]1(O)C[C@@H](c2nc(-c3ccc4ccc(-c5ccccc5)nc4c3)c3c(N)nccn32)C1 [Linsitinib] + O=C(c1cc(Cc2n[nH]c(=O)c3ccccc23)ccc1F)N1CCN(C(=O)C2CC2)CC1 [Olaparib] (partner 8 µM)
Outline: as §1

Cell Line | relative viability (Ispinesib + Alpelisib; first compound 0.001 µM) | relative viability (Ispinesib + Alpelisib; first compound 0.003162 µM) | relative viability (Ispinesib + Alpelisib; first compound 0.01 µM) | relative viability (Ispinesib + Alpelisib; first compound 0.03162 µM) | relative viability (Ispinesib + Alpelisib; first compound 0.1 µM) | relative viability (Linsitinib + Foretinib; first compound 0.01 µM) | relative viability (Linsitinib + Foretinib; first compound 0.03162 µM) | relative viability (Linsitinib + Foretinib; first compound 0.1 µM) | relative viability (Linsitinib + Foretinib; first compound 0.3162 µM) | relative viability (Linsitinib + Foretinib; first compound 1 µM) | relative viability (Linsitinib + Crizotinib; first compound 0.01 µM) | relative viability (Linsitinib + Crizotinib; first compound 0.03162 µM) | relative viability (Linsitinib + Crizotinib; first compound 0.1 µM) | relative viability (Linsitinib + Crizotinib; first compound 0.3162 µM) | relative viability (Linsitinib + Crizotinib; first compound 1 µM) | relative viability (Linsitinib + Olaparib; first compound 0.01 µM) | relative viability (Linsitinib + Olaparib; first compound 0.03162 µM) | relative viability (Linsitinib + Olaparib; first compound 0.1 µM) | relative viability (Linsitinib + Olaparib; first compound 0.3162 µM) | relative viability (Linsitinib + Olaparib; first compound 1 µM)
IA-LM | 0.742 | 0.904 | 1.09 | 0.11 | 0.158 | 1.12 | 1.06 | 0.867 | 0.783 | 1.07 | 0.763 | 0.775 | 0.736 | 0.656 | 0.496 | 0.906 | 0.976 | 0.871 | 0.796 | 0.75
LC-2-ad | 0.932 | 0.94 | 1.06 | 0.697 | 0.268 | 0.983 | 0.979 | 0.858 | 0.738 | 0.671 | 0.479 | 0.566 | 0.451 | 0.357 | 0.311 | 0.621 | 0.751 | 0.73 | 0.625 | 0.685
LCLC-97TM1 | 0.282 | 0.23 | 0.324 | 0.211 | 0.159 | 0.971 | 0.95 | 0.879 | 0.832 | 0.823 | 0.336 | 0.416 | 0.525 | 0.263 | 0.305 | 0.504 | 0.548 | 0.353 | 0.257 | 0.437
LCLC-103H | 0.986 | 1.07 | 1.03 | 0.833 | 0.943 | 0.75 | 0.771 | 0.751 | 0.709 | 0.704 | 0.991 | 0.973 | 1.01 | 0.924 | 0.932 | 0.743 | 0.776 | 0.771 | 0.689 | 0.758
LK-2 | 1.33 | 0.97 | 1.23 | 1.07 | 0.412 | 1.27 | 1.24 | 1.21 | 1.08 | 1.22 | 0.249 | 0.224 | 0.222 | 0.234 | 0.257 | 0.63 | 0.721 | 0.683 | 0.415 | 0.389
LOU-NH91 | 0.724 | 0.705 | 0.751 | 0.607 | 0.553 | 0.953 | 0.939 | 0.879 | 0.926 | 0.842 | 0.756 | 0.763 | 0.743 | 0.735 | 0.644 | 0.911 | 0.841 | 0.941 | 0.857 | 0.903
LU99A | 0.527 | 0.572 | 0.66 | 0.318 | 0.208 | 0.766 | 0.839 | 0.838 | 0.553 | 0.662 | 0.591 | 0.716 | 0.605 | 0.432 | 0.462 | 0.3 | 0.195 | 0.266 |  | 0.255
LXF-289 | 1.06 | 1.05 | 1.16 | 0.993 | 0.733 | 0.968 | 0.944 | 0.984 |  | 0.994 | 0.789 | 0.885 | 0.807 | 0.671 | 0.792 | 1.11 | 1.13 | 1.17 | 0.797 | 1.05
NCI-H23 | 0.547 | 0.679 | 0.785 | 0.731 | 0.459 | 1.04 | 1.06 | 0.924 | 0.949 | 1 | 0.416 | 0.445 | 0.591 | 0.351 | 0.451 | 0.33 | 0.317 | 0.29 | 0.218 | 0.182
NCI-H322M | 0.866 | 0.889 | 0.846 | 0.467 | 0.66 | 1 | 0.77 | 0.989 | 0.916 | 0.923 | 0.912 | 0.879 | 0.961 | 0.753 | 0.855 | 0.746 | 0.875 | 0.87 | 0.772 | 0.798
NCI-H358 | 0.885 | 0.874 | 0.989 | 0.573 | 0.283 | 0.62 | 0.701 | 0.607 | 0.538 | 0.365 | 0.661 | 0.676 | 0.588 | 0.448 | 0.415 | 0.585 | 0.64 | 0.602 | 0.47 | 0.333
NCI-H441 | 0.934 | 0.848 | 0.947 | 0.238 | 0.215 | 0.928 | 1.18 | 0.834 | 0.835 | 0.492 | 0.872 | 0.902 | 0.76 | 0.552 | 0.579 | 0.515 | 0.667 | 0.487 | 0.399 | 0.435
NCI-H460 | 0.584 | 0.45 | 0.667 | 0.0767 | 0.0288 | 1.02 | 1.05 | 0.969 | 0.935 | 1.02 | 0.799 | 0.837 | 0.961 | 0.745 | 0.714 | 0.423 | 0.273 | 0.421 |  | 0.332
NCI-H520 | 1.04 | 0.98 | 0.767 | 0.276 | 0.243 | 0.704 | 0.529 | 0.988 |  | 0.952 | 0.844 | 0.615 | 0.953 |  | 0.817 | 0.349 | 0.395 | 0.344 |  | 0.346
NCI-H596 | 0.563 | 0.427 | 0.583 | 0.458 | 0.394 | 0.831 | 0.978 | 0.873 | 0.871 | 0.858 | 0.969 | 1.08 | 0.969 | 0.987 | 1.04 | 0.736 | 0.614 | 0.677 | 0.66 | 0.604
NCI-H647 | 1.38 | 1.26 | 1.66 | 0.192 | 0.14 | 1.14 | 1.23 | 1.19 |  | 1.17 | 1.08 | 1.01 | 1.14 |  | 0.987 | 0.472 | 0.509 | 0.735 | 0.442 | 0.48

From the supplement of paper PMC10307832
